# Reference: US20150118726A1, “Processes Using Antibiotic Alternatives In Bioethanol Production” (Buckman Laboratories International, Inc., priority 2010, published 2015)
# Tests used:
# [1] = system: L. plantarum; assay: Corn mash ethanol fermentation infected with L. plantarum, treated with nonoxidizing biocide; type: cell-based, Lactobacillus plantarum; details: based on experimental results
# Procedure: (§1) Experiments were conducted to evaluate the effectiveness of a nonoxidizing biocide as an antimicrobial agent for control of Lactobacillus infections in ethanol fermentation. The nonoxidizing biocide was BRONAM® 20 (20% 2,2-dibromo-3-nitrilopropionamide). The lactobacilli was L. plantarum. The yeast was Saccharomyces cereviseae. Corn mashes containing approximately 30% (w/w) dry solids were used.
# For slurry preparation, the moisture of ground corn was determined gravimetrically using a moisture balance by measuring the mass loss that occurred upon drying. The amount of corn, deionized (DI) water, and enzyme needed to prepare 160 g of corn slurry at a total dry solids concentration of 30% (w/w) for each replicate was determined. […]
# For fermentation, once the mash was cooled, the entire contents (approximately 160 g) of each Labomat beaker were transferred to a sterile 250-ml Erlenmeyer flask. The masses of the mash and flasks were recorded, and the mass of mash transferred to the fermentation flasks was calculated. […]
# The L. plantarum culture was prepared for inoculation by growing throughout the day in 100-ml of MRS broth. […] The initial concentration of the bacteria was determined by plating serial dilutions of the culture on MRS agar containing cycloheximide and incubating at 32° C. for 2 days before counting colonies. […]
# [2] = system: Saccharomyces cereviseae; assay: Corn mash ethanol fermentation: effect of biocide on yeast / fermentation progress; type: cell-based, Saccharomyces cerevisiae
# Procedure: as §1
# A 0.2-g/ml suspension of yeast (Saccharomyces cerevisiae; Ethanol Red; Fermentis, Marcq-en-Baroeul, France) was prepared in a sterile 250-ml flask. This suspension was incubated and mixed for 20 minutes at 40° C. before inoculation into the fermentation flasks. Each fermentation flask was inoculated with 160 μl of the yeast suspension to attain an initial concentration of 10^7 yeast cells/ml. After the initial 1-hr incubation with bacteria, the flasks were inoculated with yeast and dosed with BRONAM® 20. […]
# The mass of each flask was recorded after all additions were made, and the sanitized fermentation traps were reinserted into each flask. The mass of each flask with the trap in place was also recorded. […] The mass of each flask with the traps in place were measured periodically throughout fermentation to estimate the rate of fermentation (the mass of the fermentation flasks decreases when carbon dioxide is lost by bubbling out of the fermentation traps). […]
# [3] = Persistence of DBNPA under fermentation tank conditions; type: physicochemical; details: under the conditions in the fermentation tank, based on laboratory work
# Procedure: Under the conditions in the fermentation tank, DBNPA is expected to last intact only about 1-2 hours, based on laboratory work. The stillage, i.e., fermented unevaporated product (post “beer tank”) of distillation, is centrifuged, and dried (e.g., about 1 hour at about 250-300° F.), then the mixture is pumped over to a final tank where it is called the DDGS. DDGS is about ⅓ mass of the starting raw material for corn. The chemistry of DBNPA is not expected to endure and survive the centrifugation and heat of drying prior to entering distillers dried grains with solubles (DDGS) stage. In the corn-to-ethanol process, for example, DBNPA is expected to degrade to carbon dioxide and water vapor, and, as such, would have low environmental impact. […] The application of DBNPA avoids the use of antibiotics, which can remain stable throughout the process. The use of DBNPA makes the use of antibiotics unnecessary. The use of DBNPA is more economical since the cost of antibiotics (as the only treatment widely employed) can be relatively high and costly to the fermentation. […]
# [4] = system: Lactobacillus fermentans; assay: MRS broth test of biocide combinations (Kull synergism method); type: cell-based; details: 25% MRS broth, 37° C., 24 hours
# Procedure: Lactobacilli MRS broth (25% strength) was prepared and dispensed in 10 ml amounts into test tubes and autoclaved for 20 minutes at 121° C. The biocides were added to the test tubes in the desired concentrations, and then 100 microliters of an overnight broth of Lactobacillus fermentans were added to the respective test tubes and incubated at 37° C. for 24 hours.
# QA/Qa+QB/Qb is less than 1.
# Qa=Concentration of Compound A in parts per million, acting alone, which produced an endpoint; Qb=Concentration of Compound B in parts per million, acting alone, which produced an endpoint; QA=Concentration of Compound A in parts per million, in the mixture, which produced an endpoint; QB=Concentration of Compound B in parts per million, in the mixture, which produced an endpoint.
# When the sum of QA/Qa and QB/Qb is greater than one, antagonism is indicated and when the sum is equal to one, additivity is indicated. When the sum of this value is less than one, synergism exists.
compound,measurement,setting,value
"N#CC(Br)(Br)C(N)=O [2,2-dibromo-3-nitrilopropionamide]",effect on bacteria (lactobacilli),[1],kills the bacteria
same,effect on yeast involved in fermentation,[2],does not kill the yeast
same,time DBNPA lasts intact,[3],1 to 2 h
same,"Qb, concentration of Compound B acting alone which produced an endpoint",[4]; Example 3,100 ppm
Nisin,"Qa, concentration of Compound A acting alone which produced an endpoint",[4]; Example 2,1.0 ppm
same,"Qa, concentration of Compound A acting alone which produced an endpoint",[4]; Example 3,1.0 ppm
"O=[N+]([O-])C(Br)(CO)CO [2-bromo-2-nitropropane-1,3-diol]","Qb, concentration of Compound B acting alone which produced an endpoint",[4]; Example 2,50 ppm
